# Like-named read-outs stand apart in the source and are kept apart here.
# What was measured:
# CV-1 cells = assay: Cytotoxic activity vs. CV-1 cells (disk zones of inhibition); assay type: cell-based; details: for zone of inhibition at 0.4 µg/disc / zone of inhibition at 0.8 µg/disc / zone of inhibition at 1.6 µg/disc / zone of inhibition at 0.05 µg/disc / zone of inhibition at 0.1 µg/disc / zone of inhibition at 0.2 µg/disc: Cercopithecidae, read-out: Zones of Inhibition
# Protocol: (§1) The antimicrobial activities (vs. M. luteus) and the cytotoxic activities (vs. CV-1 cells) of the ecteinascidins and ecteinascidin 743 derivatives are shown in Table 1 and 2. […] All of the derivatives of ecteinascidin 743 that were prepared have antimicrobial and cytotoxic activities.
# M. luteus = assay: Antimicrobial activity vs. M. luteus (disk zones of inhibition); assay type: cell-based; details: for zone of inhibition at 0.1 µg/disc: 100 ng/6.35-mm disk; for zone of inhibition at 0.2 µg/disc: 200 ng/6.35-mm disk; for times less potent than ecteinascidins 729 and 743: relative to ecteinascidins 729 and 743
# Protocol: as §1
# Bacillus subtilis = assay: Antimicrobial Spectrum, zones of inhibition; assay type: cell-based; details: 5 μg/disk, 6.35-mm disk
# Pseudomonas aeruginosa = assay: Antimicrobial Spectrum, zones of inhibition; assay type: cell-based; details: 5 μg/disk, 6.35-mm disk
# bacteria = assay: Antibacterial Activity (disk zone of inhibition, Example 4); assay type: cell-based
# Excerpt: | Zone of inhibition (mm)
# Penicillium oxalicum = assay: Antimicrobial Spectrum, zones of inhibition; assay type: cell-based; details: 5 μg/disk, 6.35-mm disk
# P388 leukemia = assay: In vivo P388 mouse leukemia test
# Excerpt: Compounds of this invention are also active in vivo against P388 leukemia in mice. The P388 mouse leukemia test is described in detail in a publication by G. L. Neil et al., Cancer Treatment Reports, 63: 1971-1978 (1979).
# Staphylococcus aureus = assay: Antimicrobial Spectrum, zones of inhibition; assay type: cell-based; details: 5 μg/disk, 6.35-mm disk
# Klebsiella pneumoniae = assay: Antimicrobial Spectrum, zones of inhibition; assay type: cell-based; details: 5 μg/disk, 6.35-mm disk
# [1] = test system: L1210 mouse leukemia cells; assay: L1210 Tube Dilution Assay; assay type: cell-based
# Excerpt: The L1210 tube dilution assay is described in detail in a publication by L. H. Li, et al., Cancer Research, 39:4816 (1979). ID50 and ID90 refer to the concentration of ecteinascidin needed to inhibit cell growth by […], respectively.
# Sarcina lutea sens. = assay: Antimicrobial Spectrum, zones of inhibition; assay type: cell-based; details: Micrococcus luteus; 5 μg/disk; 6.35-mm disk
# Saccharomyces cerevisiae = assay: Antimicrobial Spectrum, zones of inhibition; assay type: cell-based; details: 5 μg/disk, 6.35-mm disk
# Mycobacterium avium = assay: Antimicrobial Spectrum, zones of inhibition; assay type: cell-based; details: 5 μg/disk, 6.35-mm disk
# Escherichia coli = assay: Antimicrobial Spectrum, zones of inhibition; assay type: cell-based; details: 5 μg/disk, 6.35-mm disk
# Bacillus subtilis syn = assay: Antimicrobial Spectrum, zones of inhibition; assay type: cell-based; details: 5 μg/disk, 6.35-mm disk
# [2] = Micrococcus luteus, 400 ng/6.35-mm disk
# [3] = Micrococcus luteus, 800 ng/6.35-mm disk
# [4] = Micrococcus luteus, 1600 ng/6.35-mm disk
compound,measurement,setting,value
"COc1cc2c(cc1O)CCN[C@]21CS[C@@H]2c3c(O)c(C)c4c(c3[C@H](COC1=O)N1[C@@H]2[C@H]2c3c(cc(C)c(OC)c3O)C[C@@H]([C@@H]1O)N2C)OCO4 [Deacetyl, Deacetylecteinascidin 743]",zone of inhibition at 0.4 µg/disc,CV-1 cells; 400 ng/6.35-mm disk,11 mm
same,zone of inhibition at 0.8 µg/disc,CV-1 cells; 800 ng/6.35-mm disk,15 mm
same,zone of inhibition at 1.6 µg/disc,CV-1 cells; 1600 ng/6.35-mm disk,16 mm
same,zone of inhibition at 0.1 µg/disc,M. luteus; Micrococcus luteus,8 mm
same,zone of inhibition at 0.2 µg/disc,M. luteus; Micrococcus luteus,10 mm
same,zone of inhibition at 0.4 µg/disc,M. luteus; [2],12 mm
same,zone of inhibition at 0.8 µg/disc,M. luteus; [3],14 mm
same,zone of inhibition at 1.6 µg/disc,M. luteus; [4],16 mm
"COc1cc2c(cc1OC)[C@@]1(CS[C@@H]3c4c(OC(C)=O)c(C)c5c(c4[C@H](COC1=O)N1[C@@H]3[C@H]3c4c(cc(C)c(OC)c4OC)C[C@@H]([C@@H]1O)N3C)OCO5)NCC2 [Di- -- O-methyl, Di-O-methylecteinascidin 743]",zone of inhibition at 0.05 µg/disc,CV-1 cells,13 mm
same,zone of inhibition at 0.1 µg/disc,CV-1 cells,15 mm
same,zone of inhibition at 0.2 µg/disc,CV-1 cells,17 mm
same,zone of inhibition at 0.4 µg/disc,CV-1 cells,13 mm
same,zone of inhibition at 0.8 µg/disc,CV-1 cells,16 mm
same,zone of inhibition at 1.6 µg/disc,CV-1 cells,18 mm
same,zone of inhibition at 0.8 µg/disc,M. luteus; [3],8 mm
same,zone of inhibition at 1.6 µg/disc,M. luteus; [4],11 mm
COc1cc2c(cc1O)CCN[C@]21CS[C@@H]2c3c(OC(C)=O)c(C)c4c(c3[C@H](COC1=O)N1C[C@@H]3Cc5cc(C)c(OC)c(O)c5[C@H]([C@H]21)N3C)OCO4 [Ecteinascidin 745],zone of inhibition at 5 µg/disc,Bacillus subtilis,0 mm
same,zone of inhibition at 5 µg/disc,Pseudomonas aeruginosa,0 mm
same,Zone of inhibition,bacteria; 20 μg/disk,trace
same,zone of inhibition at 40 µg/disc,bacteria; 40 μg/disk,7 mm
same,zone of inhibition at 5 µg/disc,Penicillium oxalicum,0 mm
same,T/C,"P388 leukemia; 0.25 mg/kg, Example 6",ca. 100
same,T/C (%),"P388 leukemia; 0.25 mg/kg, Table 4",111%
same,antitumor activity (in words),"P388 leukemia; mouse, in vivo",greatly reduced activity
same,zone of inhibition at 5 µg/disc,Staphylococcus aureus,0 mm
same,zone of inhibition at 5 µg/disc,Klebsiella pneumoniae,0 mm
same,IC90,"[1]; L1210, concentration needed to inhibit cell growth by 90 percent, in vitro, read-out: ID90 (the source's name)",0.19 µg/mL
same,IC50,"[1]; L1210, read-out: ID50",0.088 µg/mL
same,cytotoxic activity (in words),CV-1 cells,greatly reduced activity
same,zone of inhibition at 0.8 µg/disc,CV-1 cells; 800 ng/6.35-mm disk,9 mm
same,zone of inhibition at 1.6 µg/disc,CV-1 cells; 1600 ng/6.35-mm disk,14 mm
same,zone of inhibition at 5 µg/disc,Sarcina lutea sens.,18 mm
same,zone of inhibition at 5 µg/disc,Saccharomyces cerevisiae,0 mm
same,zone of inhibition at 5 µg/disc,Mycobacterium avium,0 mm
same,zone of inhibition at 5 µg/disc,Escherichia coli,0 mm
same,zone of inhibition at 5 µg/disc,Bacillus subtilis syn,0 mm
same,antimicrobial activity (in words),M. luteus; dilutions accurate to within a factor of 2,greatly reduced activity
same,times less potent than ecteinascidins 729 and 743,M. luteus,~32 times
COc1cc2c(cc1O)CCN[C@]21C[S+]([O-])[C@@H]2c3c(OC(C)=O)c(C)c4c(c3[C@H](COC1=O)N1[C@H]2[C@H]2c3c(cc(C)c(OC)c3O)C[C@@H]([C@H]1O)N2C)OCO4 (some centres unmarked) [Ecteinascidin 759B],Zone of inhibition,bacteria; 0.1 μg/disk,9 mm
same,Zone of inhibition,bacteria; 1 μg/disk,15 mm
same,Zones of Inhibition,CV-1 cells; 100 ng/6.35-mm disk,11 mm
same,Zones of Inhibition,CV-1 cells; 200 ng/6.35-mm disk,13 mm
same,Zones of Inhibition,CV-1 cells; 400 ng/6.35-mm disk,15 mm
same,Zones of Inhibition,CV-1 cells; 800 ng/6.35-mm disk,22 mm
same,Zones of Inhibition,CV-1 cells; 1600 ng/6.35-mm disk,22 mm
same,Zones of Inhibition,M. luteus; 400 ng/6.35-mm disk,10 mm
same,Zones of Inhibition,M. luteus; 800 ng/6.35-mm disk,13 mm
same,Zones of Inhibition,M. luteus; 1600 ng/6.35-mm disk,15 mm
same,times less potent than ecteinascidins 729 and 743,M. luteus,four to eight times less potent
COc1cc2c(cc1O)CCN[C@]21CS[C@@H]2c3c(OC(C)=O)c(C)c4c(c3[C@H](COC1=O)N1[C@@H]2[C@H]2c3c(cc(C)c(OC)c3O)C[C@@H]([C@@H]1C#N)N2C)OCO4 [Ecteinascidin 770],Zone of inhibition,bacteria; 0.1 μg/disk,trace
same,zone of inhibition at 1 µg/disc,bacteria; 1 μg/disk,14 mm
same,zone of inhibition at 0.05 µg/disc,CV-1 cells; 50 ng/6.35-mm disk,10 mm
same,zone of inhibition at 0.1 µg/disc,CV-1 cells; 100 ng/6.35-mm disk,14 mm
same,zone of inhibition at 0.2 µg/disc,CV-1 cells; 200 ng/6.35-mm disk,16 mm
same,zone of inhibition at 0.4 µg/disc,CV-1 cells; 400 ng/6.35-mm disk,20 mm
same,zone of inhibition at 0.8 µg/disc,CV-1 cells; 800 ng/6.35-mm disk,24 mm
same,zone of inhibition at 1.6 µg/disc,CV-1 cells; 1600 ng/6.35-mm disk,25 mm
same,zone of inhibition at 0.4 µg/disc,M. luteus; [2],9 mm
same,zone of inhibition at 0.8 µg/disc,M. luteus; [3],12 mm
same,zone of inhibition at 1.6 µg/disc,M. luteus; [4],15 mm
same,times less potent than ecteinascidins 729 and 743,M. luteus,four to eight times less potent
"COc1cc2c(cc1OC)[C@@]1(CS[C@@H]3c4c(OC(C)=O)c(C)c5c(c4[C@H](COC1=O)N1[C@@H]3[C@H]3c4c(cc(C)c(OC)c4O)C[C@@H]([C@@H]1O)N3C)OCO5)NCC2 [Mono- -- O-methyl, Mono-O-methylecteinascidin 743]",zone of inhibition at 0.05 µg/disc,CV-1 cells,13 mm
same,zone of inhibition at 0.1 µg/disc,CV-1 cells,22 mm
same,zone of inhibition at 0.2 µg/disc,CV-1 cells,20 mm
same,zone of inhibition at 0.4 µg/disc,CV-1 cells,23 mm
same,zone of inhibition at 0.8 µg/disc,CV-1 cells,25 mm
same,zone of inhibition at 1.6 µg/disc,CV-1 cells,26 mm
same,zone of inhibition at 0.2 µg/disc,M. luteus; Micrococcus luteus,8 mm
same,zone of inhibition at 0.4 µg/disc,M. luteus; [2],11 mm
same,zone of inhibition at 0.8 µg/disc,M. luteus; [3],14 mm
same,zone of inhibition at 1.6 µg/disc,M. luteus; [4],14 mm
"COc1cc2c(cc1OC(C)=O)CCN[C@]21CS[C@@H]2c3c(OC(C)=O)c(C)c4c(c3[C@H](COC1=O)N1[C@@H]2[C@H]2c3c(cc(C)c(OC)c3O)C[C@@H]([C@@H]1O)N2C)OCO4 [Monoacetyl, Acetylecteinascidin 743]",zone of inhibition at 0.05 µg/disc,CV-1 cells; 50 ng/6.35-mm disk,18 mm
same,zone of inhibition at 0.1 µg/disc,CV-1 cells; 100 ng/6.35-mm disk,22 mm
same,zone of inhibition at 0.2 µg/disc,CV-1 cells; 200 ng/6.35-mm disk,22 mm
same,zone of inhibition at 0.4 µg/disc,CV-1 cells; 400 ng/6.35-mm disk,25 mm
same,zone of inhibition at 0.8 µg/disc,CV-1 cells; 800 ng/6.35-mm disk,28 mm
same,zone of inhibition at 1.6 µg/disc,CV-1 cells; 1600 ng/6.35-mm disk,30 mm
same,zone of inhibition at 0.05 µg/disc,"M. luteus; Micrococcus luteus, 50 ng/6.35-mm disk",10 mm
same,zone of inhibition at 0.1 µg/disc,M. luteus; Micrococcus luteus,12 mm
same,zone of inhibition at 0.2 µg/disc,M. luteus; Micrococcus luteus,14 mm
same,zone of inhibition at 0.4 µg/disc,M. luteus; [2],20 mm
same,zone of inhibition at 0.8 µg/disc,M. luteus; [3],20 mm
same,zone of inhibition at 1.6 µg/disc,M. luteus; [4],28 mm
same,activity relative to ecteinascidin 743 (in words),"M. luteus; relative to the original compound, antimicrobial and cytotoxic",enhanced activity over the original compound
"COc1cc2c(cc1OC(=O)c1ccc(Br)cc1)CCN[C@]21CS[C@@H]2c3c(OC(C)=O)c(C)c4c(c3[C@H](COC1=O)N1[C@@H]2[C@H]2c3c(cc(C)c(OC)c3O)C[C@@H]([C@@H]1O)N2C)OCO4 [p-Bromobenzoyl, p-Bromobenzoylecteinascidin 743]",zone of inhibition at 0.2 µg/disc,CV-1 cells; 200 ng/6.35-mm disk,10 mm
same,zone of inhibition at 0.4 µg/disc,CV-1 cells; 400 ng/6.35-mm disk,12 mm
same,zone of inhibition at 0.8 µg/disc,CV-1 cells; 800 ng/6.35-mm disk,16 mm
same,zone of inhibition at 1.6 µg/disc,CV-1 cells; 1600 ng/6.35-mm disk,18 mm
same,zone of inhibition at 0.4 µg/disc,M. luteus; [2],8 mm
same,zone of inhibition at 0.8 µg/disc,M. luteus; [3],10 mm
same,zone of inhibition at 1.6 µg/disc,M. luteus; [4],12 mm
Ecteinascidin 759A,Zone of inhibition,bacteria; 1 μg/disk,9 mm
same,Zones of Inhibition,CV-1 cells; 400 ng/6.35-mm disk,10 mm
same,Zones of Inhibition,CV-1 cells; 800 ng/6.35-mm disk,16 mm
same,Zones of Inhibition,CV-1 cells; 1600 ng/6.35-mm disk,16 mm
same,Zones of Inhibition,M. luteus; 800 ng/6.35-mm disk,8 mm
same,Zones of Inhibition,M. luteus; 1600 ng/6.35-mm disk,10 mm
same,times less potent than ecteinascidins 729 and 743,M. luteus,four to eight times less potent

# Reference: patent US5089273A, “Ecteinascidins 729, 743, 745, 759A, 759B and 770” (priority 1990, dated 1992)
